What was measured:
[1] = Agonist activity at human GHSR expressed in CHO cells incubated for 60 min by FLIPR assay; type: cell-based; conditions: 1 h
CHO [2] = assay: Agonist activity at human GHSR expressed in CHO cells at maximum concentration incubated for 60 min by FLIPR assay relative to control; type: cell-based
[3] = Agonist activity at monkey GHSR expressed in CHO cells incubated for 60 min by FLIPR assay; type: cell-based; conditions: Macaca mulatta, 1 h
CHO [4] = assay: Agonist activity at monkey GHSR expressed in CHO cells at maximum concentration incubated for 60 min by FLIPR assay relative to control; type: cell-based; conditions: Macaca mulatta, filed as agonist
[5] = Agonist activity at dog GHSR expressed in CHO cells incubated for 60 min by FLIPR assay; type: cell-based; conditions: 1 h
CHO [6] = assay: Agonist activity at dog GHSR expressed in CHO cells at maximum concentration incubated for 60 min by FLIPR assay relative to control; type: cell-based; conditions: Canis lupus familiaris, filed as agonist
[7] = target: Growth hormone secretagogue receptor type 1 (Rattus norvegicus, UniProt O08725); assay: Agonist activity at rat GHSR expressed in CHO cells incubated for 60 min by FLIPR assay; type: functional, cell-based
Sequence of Growth hormone secretagogue receptor type 1 (O08725 whole entry): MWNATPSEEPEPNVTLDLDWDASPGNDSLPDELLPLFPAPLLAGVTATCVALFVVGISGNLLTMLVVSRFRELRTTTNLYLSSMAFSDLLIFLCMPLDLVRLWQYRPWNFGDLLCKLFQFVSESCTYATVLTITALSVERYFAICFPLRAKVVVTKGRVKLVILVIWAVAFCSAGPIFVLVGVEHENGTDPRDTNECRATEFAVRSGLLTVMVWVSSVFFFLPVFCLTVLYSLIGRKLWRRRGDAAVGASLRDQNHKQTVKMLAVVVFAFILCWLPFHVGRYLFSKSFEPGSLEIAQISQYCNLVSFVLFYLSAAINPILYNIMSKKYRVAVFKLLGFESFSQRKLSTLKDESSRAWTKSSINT

[8] = target: Growth hormone secretagogue receptor type 1 (Rattus norvegicus) (UniProt O08725); assay: Agonist activity at rat GHSR expressed in CHO cells at maximum concentration incubated for 60 min by FLIPR assay relative to control; type: functional, cell-based; conditions: filed as agonist
Sequence of Growth hormone secretagogue receptor type 1 (Rattus norvegicus) (O08725 whole entry): as above

SMILES	EC50 [1]	Activity (CHO [2]; filed as agonist)	Activity (CHO [2])	EC50 [3]	Activity (CHO [4])	EC50 [5]	Activity (CHO [6])	EC50 [7]	Activity [8]
CC(C)(N)C(=O)N[C@H](COCc1ccccc1)C(=O)N1C2CCC1[C@@]1(Cc3ccccc3)C(=O)NN=C1C2 (some centres undefined)	447 nM	41.7%	–	–	–	–	–	–	–
CC(C)(N)C(=O)N[C@H](COCc1ccccc1)C(=O)N1CC(C)(C)C2=NNC(=O)[C@]2(Cc2ccccc2)C1	53.3 nM	–	25.4%	–	–	–	–	–	–
CN1N=C2CCN(C(=O)[C@@H](COCc3ccccc3)NC(=O)C3CCNCC3)C[C@@]2(Cc2ccccc2)C1=O	> 1000 nM	–	30.5%	102 nM	94.9%	143 nM	91.6%	39.3 nM	106%
CC(C)(N)C(=O)N[C@H](COCc1ccccc1)C(=O)N1CCC2=NN(C3CCCC3)C(=O)[C@]2(Cc2ccccc2)C1	0.58 nM	121%	–	0.051 nM	110%	0.105 nM	117%	0.021 nM	97.2%
CC(C)(N)C(=O)N[C@H](COCc1ccccc1)C(=O)N1CCC2=NN(C3CCCCC3)C(=O)[C@]2(Cc2ccccc2)C1	2.63 nM	137%	–	–	–	–	–	–	–
CC(C)(N)C(=O)N[C@H](COCc1ccccc1)C(=O)N1CCc2ccn(Cc3ccccc3)c2C1	735 nM	47.6%	–	–	–	–	–	–	–
CC(C)(N)C(=O)N[C@H](COCc1ccccc1)C(=O)N1CCC2=NN(C(F)F)C(=O)[C@]2(Cc2ccccc2)C1	> 1000 nM	–	11%	–	–	–	–	–	–
Cn1nc2c(c1-c1ccccc1)CCN(C(=O)[C@@H](COCc1ccccc1)NC(=O)C(C)(C)N)C2	> 1000 nM	–	18.2%	–	–	–	–	–	–
CC(C)(N)C(=O)N[C@H](COCc1ccccc1)C(=O)N1CCC2=NN(C(C)(C)C)C(=O)[C@]2(Cc2ccccc2)C1	1.34 nM	143%	–	0.044 nM	99.3%	0.071 nM	123%	0.016 nM	112%
Cn1nc2c(c1-c1ccccc1)CN(C(=O)[C@@H](COCc1ccccc1)NC(=O)C(C)(C)N)CC2	72.4 nM	72%	–	–	–	–	–	–	–
CN1N=C2CC3CCC(N3C(=O)[C@@H](COCc3ccccc3)NC(=O)C(C)(C)N)[C@@]2(Cc2ccccc2)C1=O (some centres undefined)	10.4 nM	104%	–	–	–	–	–	–	–
CN1N=C2CCN(C(=O)[C@@H](COCc3ccccc3)NC(=O)C(C)(C)N)C[C@@]2(Cc2ccccc2)C1=O [CAPROMORELIN]	1.37 nM	119%	–	0.074 nM	109%	0.118 nM	155%	0.017 nM	111%
CN1N=C2C3(CC3)CN(C(=O)[C@@H](COCc3ccccc3)NC(=O)C(C)(C)N)C[C@@]2(Cc2ccccc2)C1=O	29.8 nM	82.1%	–	–	–	–	–	–	–
CC(C)(N)C(=O)N[C@H](COCc1ccccc1)C(=O)N1CCC2=NN(C3COC3)C(=O)[C@]2(Cc2ccccc2)C1	14.7 nM	99.2%	–	–	–	–	–	–	–
CN1N=C2C(C)(C)CN(C(=O)[C@@H](COCc3ccccc3)NC(=O)C(C)(C)N)C[C@@]2(Cc2ccccc2)C1=O	63.7 nM	82.2%	–	–	–	–	–	–	–
CC(C)(N)C(=O)N[C@H](COCc1ccccc1)C(=O)N1CCC2=NN(CC3CC3)C(=O)[C@]2(Cc2ccccc2)C1	0.89 nM	134%	–	0.034 nM	104%	0.043 nM	120%	0.009 nM	97.1%
CC1N(C(=O)[C@@H](COCc2ccccc2)NC(=O)C(C)(C)N)CCC2=NN(C)C(=O)[C@@]21Cc1ccccc1 (some centres undefined)	160 nM	97.4%	–	–	–	–	–	–	–
